In ChEMBL document CHEMBL1201862, “PubChem BioAssay data set” (2004):
Activity calls are given as the source filed them.

What was measured:
[1] = inhibitors of Bluetongue virus cytopathic effect, confirmation, arbovirus, BSR cells (AID 1250); assay type: functional;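 further: protection from viral cytopathic effect measured as cell viability by ATP luminescence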
cells = assay type: functional, cell-based
[2] = molecular target: T1, Nuclear receptor subfamily 0 group B member 1 (Homo sapiens, UniProt P51843); assay type: functional, cell-based;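 further: HEK293T cells transfected with SF-1 and DAX-1 plus StAR promoter luciferase reporter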
T1 sequence (P51843 whole entry): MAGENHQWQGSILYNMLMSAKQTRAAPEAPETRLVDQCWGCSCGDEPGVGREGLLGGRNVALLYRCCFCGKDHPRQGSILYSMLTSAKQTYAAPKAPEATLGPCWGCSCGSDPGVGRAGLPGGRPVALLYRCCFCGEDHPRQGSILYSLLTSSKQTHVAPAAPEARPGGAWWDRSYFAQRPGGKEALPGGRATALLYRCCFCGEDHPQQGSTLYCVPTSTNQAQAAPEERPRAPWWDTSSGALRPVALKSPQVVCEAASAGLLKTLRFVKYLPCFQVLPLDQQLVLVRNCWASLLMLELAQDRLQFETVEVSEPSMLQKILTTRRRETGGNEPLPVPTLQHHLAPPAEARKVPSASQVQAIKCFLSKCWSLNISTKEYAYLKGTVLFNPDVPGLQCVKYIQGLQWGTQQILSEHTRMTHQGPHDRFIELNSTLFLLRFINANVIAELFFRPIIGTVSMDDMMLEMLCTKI

Protein Rev = Protein Rev (Human immunodeficiency virus type 1 group M subtype B (isolate WMJ22)(HIV-1), UniProt P05866); test: HIV-1 Rev-RRE RNA binding disruptors, dose response, biochemical, protein-RNA interaction (AID 842); parameters: species or system Human immunodeficiency virus 1
Sequence of Protein Rev (P05866 whole entry): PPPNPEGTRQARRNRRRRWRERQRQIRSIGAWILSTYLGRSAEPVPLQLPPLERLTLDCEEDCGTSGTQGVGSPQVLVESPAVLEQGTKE

[3] = Luminescence Cell-Based Dose Response to Identify Activators of Luciferase Translation or Activity in H4-C Neuroglioblastoma Cells. [Related pubchem assays: 1829 (Project Summary), 1814 (Primary HTS)]; assay type: functional
H4 = test: Luminescence Cell-Based Dose Response HTS to Identify Activators of 5'UTR Stem-Loop Driven Prion Protein mRNA Translation in H4 Neuroglioblastoma Cells. [Related pubchem assays: 1829 (Project Summary), 1814 (Primary HTS)]; assay type: functional; details: Homo sapiens
[4] = Luminescence Cell-Based Dose Confirmation to Identify Activators of 5'UTR Stem-Loop Driven Alpha-Synuclein mRNA Translation in H4 Neuroglioblastoma Cells. [Related pubchem assays: 1829 (Project Summary), 1814 (Primary HTS)]; assay type: functional
[5] = Luminescence Cell-Based Dose Response HTS to Identify Activators of Luciferase Translation or Activity in H4 […] Cells. [Related pubchem assays: 1829 (Project Summary), 1814 (Primary HTS)]; assay type: functional
[6] = molecular target: T2, Corticotropin-releasing factor receptor 2/Corticotropin-releasing factor-binding protein (Homo sapiens, UniProt P24387+Q13324); test: activators of CRF receptor 2 with binding protein – uHTS hits, confirmation (AID 602473); assay type: functional; details: read-out: EC50_Mean
T2 sequence (Q13324 whole entry): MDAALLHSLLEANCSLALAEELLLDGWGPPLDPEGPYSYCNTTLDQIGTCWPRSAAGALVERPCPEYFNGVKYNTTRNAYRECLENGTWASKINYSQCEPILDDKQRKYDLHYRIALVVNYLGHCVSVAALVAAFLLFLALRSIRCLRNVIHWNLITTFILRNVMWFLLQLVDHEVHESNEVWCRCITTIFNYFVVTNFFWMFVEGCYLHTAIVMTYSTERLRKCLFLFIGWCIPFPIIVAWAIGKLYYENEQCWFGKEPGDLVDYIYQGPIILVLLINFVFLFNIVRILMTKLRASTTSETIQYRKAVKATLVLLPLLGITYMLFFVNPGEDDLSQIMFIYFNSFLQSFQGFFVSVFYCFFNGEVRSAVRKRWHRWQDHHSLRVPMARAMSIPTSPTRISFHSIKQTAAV
T2 sequence (P24387 whole entry): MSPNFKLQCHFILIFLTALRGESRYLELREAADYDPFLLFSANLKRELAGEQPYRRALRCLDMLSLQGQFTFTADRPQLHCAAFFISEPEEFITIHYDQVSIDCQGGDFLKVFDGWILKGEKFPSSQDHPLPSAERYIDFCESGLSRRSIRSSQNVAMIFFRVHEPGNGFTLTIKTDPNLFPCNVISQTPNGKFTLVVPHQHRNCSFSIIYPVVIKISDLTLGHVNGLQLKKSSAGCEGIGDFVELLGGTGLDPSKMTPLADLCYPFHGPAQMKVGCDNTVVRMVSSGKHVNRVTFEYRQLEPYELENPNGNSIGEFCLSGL

[7] = Luminescence Cell-Based Dose Response to Identify Activators of 5'UTR Stem-Loop Driven Prion Protein mRNA Translation in H4-C Neuroglioblastoma Cells. [Related pubchem assays: 1829 (Project Summary), 1814 (Primary HTS)]; assay type: functional
[8] = molecular target: Glyceraldehyde-3-phosphate dehydrogenase (Homo sapiens, UniProt P04406)
Sequence of Glyceraldehyde-3-phosphate dehydrogenase (P04406 whole entry): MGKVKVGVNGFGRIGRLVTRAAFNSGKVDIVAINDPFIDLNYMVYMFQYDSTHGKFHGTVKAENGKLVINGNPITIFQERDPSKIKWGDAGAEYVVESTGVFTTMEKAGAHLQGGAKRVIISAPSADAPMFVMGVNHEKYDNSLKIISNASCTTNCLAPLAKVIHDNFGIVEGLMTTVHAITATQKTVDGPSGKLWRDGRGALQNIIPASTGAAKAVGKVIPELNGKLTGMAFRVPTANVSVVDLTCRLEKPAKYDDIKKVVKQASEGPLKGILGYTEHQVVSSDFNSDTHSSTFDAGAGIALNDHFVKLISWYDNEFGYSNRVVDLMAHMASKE

[9] = M. tuberculosis H37Rv growth inhibitors, H37Rv strain (AID 1626); assay type: functional
Bcl-2-related protein A1 [10] = molecular target: T3, Bcl-2-related protein A1 (Mus musculus, UniProt Q07440); test: Bfl-1 inhibitors blocking BH3 peptide binding, confirmation, biochemical, TR-FRET, mouse Bfl-1 (AID 621);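 further: TR-FRET binding of GST-Bfl-1 to FITC-labelled Bid peptide via terbium antibody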
T3 sequence (Q07440 whole entry): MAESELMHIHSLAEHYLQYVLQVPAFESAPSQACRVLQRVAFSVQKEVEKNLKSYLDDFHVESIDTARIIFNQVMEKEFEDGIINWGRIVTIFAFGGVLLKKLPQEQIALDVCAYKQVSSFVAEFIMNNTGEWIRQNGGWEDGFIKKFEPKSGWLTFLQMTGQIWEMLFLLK

Bcl-2-related protein A1 [11] = molecular target: T3, Bcl-2-related protein A1; test: Bfl-1 binding inhibitors, SAR follow-up, biochemical, fluorescence polarization (AID 1070)
[12] = cytotoxicity in KRAS-transformed pancreatic duct cells, primary screen, cell-based, fluorescence, HTS (AID 431); assay type: functional; details: Homo sapiens;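 further: cell line used: HPDE-C7K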
[13] = microbe, parasite or virus in culture; assay type: functional; details: Mycobacterium tuberculosis
[14] = cytotoxicity in HPDE-C7 cells, cell-based, fluorescence, HTS (AID 430); assay type: functional; details: Homo sapiens
[15] = molecular target: Protein-tyrosine kinase 2-beta (Homo sapiens, UniProt Q14289);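 further: potency of inhibitors of PYK2 kinase phosphorylation of poly-GT substrate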
Sequence of Protein-tyrosine kinase 2-beta (Q14289 whole entry): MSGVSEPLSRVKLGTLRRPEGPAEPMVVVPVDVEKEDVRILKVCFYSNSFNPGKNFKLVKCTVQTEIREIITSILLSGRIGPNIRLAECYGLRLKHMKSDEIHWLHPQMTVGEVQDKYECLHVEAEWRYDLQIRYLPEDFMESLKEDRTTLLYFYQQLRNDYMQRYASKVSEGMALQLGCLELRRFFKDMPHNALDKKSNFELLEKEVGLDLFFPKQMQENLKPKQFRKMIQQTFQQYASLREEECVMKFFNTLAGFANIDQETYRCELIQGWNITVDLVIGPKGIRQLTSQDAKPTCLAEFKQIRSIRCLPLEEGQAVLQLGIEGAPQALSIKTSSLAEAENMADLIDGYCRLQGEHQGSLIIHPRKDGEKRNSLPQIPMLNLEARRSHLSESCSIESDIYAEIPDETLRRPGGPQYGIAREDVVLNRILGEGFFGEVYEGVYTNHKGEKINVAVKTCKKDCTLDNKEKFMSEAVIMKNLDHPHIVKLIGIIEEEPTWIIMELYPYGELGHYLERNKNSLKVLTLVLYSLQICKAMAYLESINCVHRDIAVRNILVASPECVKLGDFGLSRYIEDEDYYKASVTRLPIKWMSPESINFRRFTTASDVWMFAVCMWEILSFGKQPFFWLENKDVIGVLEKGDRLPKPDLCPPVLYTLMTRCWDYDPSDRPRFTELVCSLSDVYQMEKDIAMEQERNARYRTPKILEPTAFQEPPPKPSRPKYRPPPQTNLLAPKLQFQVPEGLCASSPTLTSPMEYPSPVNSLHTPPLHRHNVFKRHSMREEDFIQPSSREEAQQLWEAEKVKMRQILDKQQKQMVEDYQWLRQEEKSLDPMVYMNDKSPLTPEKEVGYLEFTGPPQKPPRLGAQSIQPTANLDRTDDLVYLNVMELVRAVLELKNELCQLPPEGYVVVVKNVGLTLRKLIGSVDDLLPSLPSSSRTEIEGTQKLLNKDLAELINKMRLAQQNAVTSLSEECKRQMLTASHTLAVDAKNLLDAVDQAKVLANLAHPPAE

[16] = molecular target: Melanin-concentrating hormone receptor 1 (Homo sapiens, UniProt Q99705); test: Fluorescence-based counterscreen for antagonists of the G-protein coupled receptor 7 (GPR7): cell-based high throughput dose response assay to identify antagonists of the melanin-concentrating hormone receptor 1 (MCHR1).; assay type: functional
Sequence of Melanin-concentrating hormone receptor 1 (Q99705 whole entry): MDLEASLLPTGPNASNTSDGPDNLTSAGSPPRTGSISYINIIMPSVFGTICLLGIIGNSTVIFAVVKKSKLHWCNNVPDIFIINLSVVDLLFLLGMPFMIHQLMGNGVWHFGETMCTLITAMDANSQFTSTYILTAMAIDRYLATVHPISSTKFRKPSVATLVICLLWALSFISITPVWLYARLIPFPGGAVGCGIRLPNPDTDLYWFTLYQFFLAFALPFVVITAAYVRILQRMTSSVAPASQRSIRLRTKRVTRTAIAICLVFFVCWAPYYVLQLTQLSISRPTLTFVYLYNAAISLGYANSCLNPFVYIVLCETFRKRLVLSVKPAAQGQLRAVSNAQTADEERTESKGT

[17] = molecular target: Lysosomal acid glucosylceramidase (Homo sapiens, UniProt P04062); test: Dose response cell-based high throughput screening assay to identify enhancers of beta-glucosidase activity. [Related pubchem assays: 784 ]; assay type: functional
Sequence of Lysosomal acid glucosylceramidase (P04062 whole entry): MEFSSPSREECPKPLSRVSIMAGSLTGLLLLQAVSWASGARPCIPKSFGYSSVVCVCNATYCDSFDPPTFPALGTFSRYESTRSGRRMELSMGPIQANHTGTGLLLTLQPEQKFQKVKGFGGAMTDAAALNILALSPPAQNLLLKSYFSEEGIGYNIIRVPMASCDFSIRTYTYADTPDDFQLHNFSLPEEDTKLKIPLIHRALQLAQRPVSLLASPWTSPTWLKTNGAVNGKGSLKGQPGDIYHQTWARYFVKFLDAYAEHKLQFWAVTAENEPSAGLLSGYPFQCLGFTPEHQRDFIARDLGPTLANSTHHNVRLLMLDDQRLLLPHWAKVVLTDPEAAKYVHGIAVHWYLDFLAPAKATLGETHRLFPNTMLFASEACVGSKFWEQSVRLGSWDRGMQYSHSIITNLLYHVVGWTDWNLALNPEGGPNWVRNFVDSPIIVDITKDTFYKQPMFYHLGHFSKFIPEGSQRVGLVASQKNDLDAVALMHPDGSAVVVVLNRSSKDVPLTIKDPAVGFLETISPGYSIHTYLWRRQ

[18] = molecular target: Glucose-6-phosphate 1-dehydrogenase (Homo sapiens, UniProt P11413); test: human G6PD enzyme inhibitors, dose response, selectivity assay for P. falciparum G6PD inhibitor project, biochemical, fluorescence (AID 504792); assay type: functional
Sequence of Glucose-6-phosphate 1-dehydrogenase (P11413 whole entry): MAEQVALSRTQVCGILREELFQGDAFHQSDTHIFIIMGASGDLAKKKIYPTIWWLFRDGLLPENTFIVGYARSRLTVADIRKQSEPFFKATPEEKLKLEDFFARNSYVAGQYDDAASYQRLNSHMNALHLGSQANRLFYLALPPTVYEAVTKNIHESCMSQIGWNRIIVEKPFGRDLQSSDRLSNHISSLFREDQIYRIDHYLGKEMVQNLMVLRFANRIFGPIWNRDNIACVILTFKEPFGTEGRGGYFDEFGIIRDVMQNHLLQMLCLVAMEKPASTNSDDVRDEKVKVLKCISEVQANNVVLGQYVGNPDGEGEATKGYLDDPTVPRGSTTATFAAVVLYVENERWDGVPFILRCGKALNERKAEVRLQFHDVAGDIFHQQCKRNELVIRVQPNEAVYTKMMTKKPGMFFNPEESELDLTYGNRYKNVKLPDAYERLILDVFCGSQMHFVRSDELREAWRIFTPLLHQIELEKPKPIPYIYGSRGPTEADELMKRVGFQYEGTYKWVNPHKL

[19] = molecular target: T4, DNA repair and recombination protein RAD54-like (Homo sapiens, UniProt Q92698); test: inhibitors of human RAD54 branch migration, confirmation, biochemical, fluorescence, cherry-picked samples, dose series (AID 651657); assay type: functional
T4 sequence (Q92698 whole entry): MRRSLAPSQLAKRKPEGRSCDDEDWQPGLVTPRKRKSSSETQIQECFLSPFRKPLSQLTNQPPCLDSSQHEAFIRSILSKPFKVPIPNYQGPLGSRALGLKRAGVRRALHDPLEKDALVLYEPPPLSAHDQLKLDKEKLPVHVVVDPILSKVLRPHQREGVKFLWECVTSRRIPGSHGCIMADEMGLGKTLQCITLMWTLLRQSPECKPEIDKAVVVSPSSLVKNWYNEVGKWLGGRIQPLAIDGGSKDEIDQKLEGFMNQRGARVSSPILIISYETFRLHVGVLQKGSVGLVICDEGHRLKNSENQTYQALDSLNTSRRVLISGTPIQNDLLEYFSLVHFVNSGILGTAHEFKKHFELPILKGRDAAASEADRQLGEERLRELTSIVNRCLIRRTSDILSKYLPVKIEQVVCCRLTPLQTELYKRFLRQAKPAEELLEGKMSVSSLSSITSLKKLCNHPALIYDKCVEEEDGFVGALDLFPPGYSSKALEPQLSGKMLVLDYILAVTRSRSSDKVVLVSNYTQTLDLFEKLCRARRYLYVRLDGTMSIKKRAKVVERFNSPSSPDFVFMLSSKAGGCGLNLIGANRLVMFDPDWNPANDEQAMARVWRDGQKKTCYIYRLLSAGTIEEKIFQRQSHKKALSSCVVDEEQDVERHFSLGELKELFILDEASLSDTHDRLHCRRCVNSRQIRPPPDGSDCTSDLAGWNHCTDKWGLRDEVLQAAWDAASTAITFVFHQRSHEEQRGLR

Kallikrein-7 = Kallikrein-7 (Homo sapiens, UniProt P49862); test: Fluorescence Intensity-based biochemical primary high throughput dose response assay to identify activators of kallikrein-7 (K7) zymogen.
Sequence of Kallikrein-7 (P49862 whole entry): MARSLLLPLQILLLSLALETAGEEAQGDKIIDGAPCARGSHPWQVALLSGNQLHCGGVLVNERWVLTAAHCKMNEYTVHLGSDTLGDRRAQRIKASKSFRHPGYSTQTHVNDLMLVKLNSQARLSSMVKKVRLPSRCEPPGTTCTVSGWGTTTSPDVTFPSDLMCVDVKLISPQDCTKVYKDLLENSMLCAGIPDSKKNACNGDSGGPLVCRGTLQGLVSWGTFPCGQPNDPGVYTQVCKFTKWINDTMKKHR

Cytochrome P450 3A4 = Cytochrome P450 3A4 (Homo sapiens, UniProt P08684);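 further: CYP3A4 tested as one member of a cytochrome P450 panel screen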
Sequence of Cytochrome P450 3A4 (P08684 whole entry): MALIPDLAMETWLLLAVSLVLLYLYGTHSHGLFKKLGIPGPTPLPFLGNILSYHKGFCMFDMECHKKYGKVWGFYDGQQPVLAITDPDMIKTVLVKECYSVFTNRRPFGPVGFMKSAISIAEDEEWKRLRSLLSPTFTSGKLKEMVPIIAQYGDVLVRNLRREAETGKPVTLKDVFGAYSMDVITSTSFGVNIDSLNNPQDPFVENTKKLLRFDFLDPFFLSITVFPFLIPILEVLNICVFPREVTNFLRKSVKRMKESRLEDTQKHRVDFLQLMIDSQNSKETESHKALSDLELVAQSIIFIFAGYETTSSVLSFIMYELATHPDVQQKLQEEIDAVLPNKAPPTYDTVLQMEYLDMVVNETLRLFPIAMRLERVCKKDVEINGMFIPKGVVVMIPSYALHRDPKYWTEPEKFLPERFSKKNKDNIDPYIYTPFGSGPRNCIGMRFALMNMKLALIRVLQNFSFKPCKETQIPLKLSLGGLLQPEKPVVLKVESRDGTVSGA

[20] = molecular target: T5, Sentrin-specific protease 1 (Homo sapiens, UniProt Q9P0U3); test: potency of human SENP1 inhibitors, dose response, biochemical, kinetic FRET (AID 651697); assay type: functional; details: read-out: IC50_Mean
T5 sequence (Q9P0U3 whole entry): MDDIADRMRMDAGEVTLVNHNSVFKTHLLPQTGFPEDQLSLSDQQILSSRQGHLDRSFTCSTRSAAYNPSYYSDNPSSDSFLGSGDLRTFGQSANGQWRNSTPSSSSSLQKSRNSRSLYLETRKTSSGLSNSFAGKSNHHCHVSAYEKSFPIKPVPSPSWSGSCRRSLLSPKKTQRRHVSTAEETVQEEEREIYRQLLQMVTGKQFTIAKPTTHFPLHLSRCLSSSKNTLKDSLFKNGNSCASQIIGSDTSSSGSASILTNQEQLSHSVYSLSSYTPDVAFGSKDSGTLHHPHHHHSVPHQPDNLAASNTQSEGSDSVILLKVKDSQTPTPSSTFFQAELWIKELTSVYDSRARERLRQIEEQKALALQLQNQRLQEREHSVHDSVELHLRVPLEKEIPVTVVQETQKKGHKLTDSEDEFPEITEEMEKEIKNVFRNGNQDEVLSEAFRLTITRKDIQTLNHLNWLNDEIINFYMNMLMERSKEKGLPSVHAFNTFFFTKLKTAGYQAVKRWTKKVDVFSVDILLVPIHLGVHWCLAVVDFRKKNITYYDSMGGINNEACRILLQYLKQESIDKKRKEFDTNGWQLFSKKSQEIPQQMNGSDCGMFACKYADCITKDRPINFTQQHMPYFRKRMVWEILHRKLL

[21] = cytotoxicity in HEK-293T cells, dose response, cytotoxicity control for BCR NF-kB inhibitor project, luminescence, B-cell screen hits (AID 489021); assay type: functional, cell-based;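 further: HEK-293T cells carrying an NF-kB luciferase reporter; cells exposed to compound for about 14 hours before viability readout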
[22] = molecular target: T5, Sentrin-specific protease 1; test: Dose response confirmation of small molecule inhibitors of the catalytic domain of the SUMO protease, SENP1 in a FRET assay.; assay type: functional; details: read-out: IC50_Mean
[23] = molecular target: Metabotropic glutamate receptor 4 (Rattus norvegicus, UniProt P31423); test: Modulation of the Metabotropic Glutamate Receptor mGluR4: Rat PAM Potency. [Related pubchem assays (depositor defined):AID2437, AID2807]; assay type: functional
Sequence of Metabotropic glutamate receptor 4 (P31423 whole entry): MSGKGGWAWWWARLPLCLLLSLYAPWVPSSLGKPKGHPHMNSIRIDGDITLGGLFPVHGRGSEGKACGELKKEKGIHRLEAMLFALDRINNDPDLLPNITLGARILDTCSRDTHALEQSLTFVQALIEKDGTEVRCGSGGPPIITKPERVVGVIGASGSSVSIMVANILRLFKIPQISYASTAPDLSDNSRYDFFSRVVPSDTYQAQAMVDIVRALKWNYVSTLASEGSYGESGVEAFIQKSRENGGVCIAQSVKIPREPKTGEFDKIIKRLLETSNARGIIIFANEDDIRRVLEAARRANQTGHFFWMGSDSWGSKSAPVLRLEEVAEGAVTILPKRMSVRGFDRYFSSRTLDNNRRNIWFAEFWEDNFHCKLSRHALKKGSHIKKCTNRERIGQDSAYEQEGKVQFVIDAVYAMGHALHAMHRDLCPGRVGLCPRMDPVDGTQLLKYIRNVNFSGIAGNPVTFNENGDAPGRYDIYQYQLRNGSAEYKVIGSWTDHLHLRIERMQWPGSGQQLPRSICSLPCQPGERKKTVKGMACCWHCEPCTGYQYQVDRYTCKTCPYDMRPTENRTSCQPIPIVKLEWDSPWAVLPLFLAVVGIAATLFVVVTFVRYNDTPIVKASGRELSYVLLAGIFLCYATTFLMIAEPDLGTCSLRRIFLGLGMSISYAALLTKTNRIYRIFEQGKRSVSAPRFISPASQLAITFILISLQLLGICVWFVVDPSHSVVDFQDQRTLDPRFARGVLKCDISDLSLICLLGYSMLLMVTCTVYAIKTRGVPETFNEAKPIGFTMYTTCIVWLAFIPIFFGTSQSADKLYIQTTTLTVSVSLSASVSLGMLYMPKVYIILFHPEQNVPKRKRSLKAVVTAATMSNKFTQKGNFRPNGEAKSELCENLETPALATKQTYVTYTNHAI

## COc1ccc(/C=C/C(=O)Nc2ccccc2C(=O)O)cc1
[1]
  IC50: 31 µM (active)
cells
  IC50: > 67.5 µM (inactive)
[2]
  IC50: > 67.5 µM (inactive)

## NCCCC(=O)N1c2ccccc2Sc2ccccc21
Protein Rev
  IC50: > 79.4 µM (not active)

## Cc1nnc(SCC(=O)c2cc(C)n(C3CC3)c2C)s1
[3]
  EC50: 0.266 µM (active)
H4
  EC50: > 120 µM (not active)
[4]
  EC50: 1.88 µM (active)
[5]
  EC50: < 0.1 µM (active)
[6]
  EC50: 7.62 µM (active)
[7]
  EC50: 0.594 µM (active)

## Cc1cccc(N2C(=O)C(Cl)=C(N3CCN[C@@H](C)C3)C2=O)c1
[8]
  IC50: > 50 µM (inconclusive)

## COc1ccc(-c2cc(C(F)(F)F)n3ncc(C(=O)N4CCCCC4c4cccnc4)c3n2)cc1 (stereo not drawn)
[9]
  IC50: > 100 µM (active)

## COc1ncccc1-c1nnn(-c2ccc(C)cc2)n1
Bcl-2-related protein A1 [10]
  IC50: > 100 µM (not active)
Bcl-2-related protein A1 [11]
  IC50: > 100 µM (not active)

## Cc1nc2cc(C(F)(F)F)ccc2n1C1CCN(Cc2nnnn2Cc2ccc3c(c2)OCO3)CC1
[12]
  EC50: 8.93 µM (active)
[13]
  CC50: > 40 µM (active)
[14]
  EC50: 8.54 µM (active)

## CC(C)COc1ccc(Cc2cnc(N)nc2N)cc1
Protein Rev
  IC50: > 79.4 µM (not active)

## O=Cc1ccc2noc(-c3ccc(F)cc3)c2c1
[9]
  IC50: > 100 µM (active)
[15]
  IC50: > 69.5 µM (not active)

## COCCCNC(=O)/C=C1\Sc2ccccc2N(Cc2ccccc2F)C1=O
[16]
  IC50: 28.8 µM (not active)

## CN1CCN(C2=C(Cl)C(=O)N(c3ccnc(Cl)c3)C2=O)CC1
[8]
  IC50: > 100 µM (not active)
Bcl-2-related protein A1 [10]
  IC50: 35.6 µM (active)
Bcl-2-related protein A1 [11]
  IC50: 29 µM (active)

## CC1=C(C(N)=O)C(c2cccs2)n2nc(-c3cccc(C)c3)nc2N1 (stereo not drawn)
[17]
  EC50: > 50 µM (not active)

## O=C(Nc1sc2c(c1C(=O)O)CCC2)c1ccc(F)cc1
[1]
  IC50: 31.4 µM (active)
[18]
  IC50: > 80 µM (inactive)

## CCOCCCn1c(=N)c(C(=O)NCCN2CCOCC2)cc2c(=O)n3cccc(C)c3nc21
[19]
  AC50: 25.3 µM (active)
[17]
  EC50: > 50 µM (not active)
Kallikrein-7
  EC50: > 69.5 µM (inactive)

## CCN1C(=O)c2cccc3c(NC(=O)c4cccc(N5C(=O)CCC5=O)c4)ccc1c23
Cytochrome P450 3A4
  AC50: 22.4 µM (inconclusive)
[20]
  IC50: 17.9 µM (active)
[21]
  IC50: > 80 µM (inactive)
[22]
  IC50: 11.3 µM (active)

## COC(=O)C(CC(=O)c1ccc(Br)cc1)n1ccnc1 (stereo not drawn)
[12]
  EC50: 14.4 µM (active)
[14]
  EC50: 15.5 µM (active)

## O=C(Nc1ccc(N2C(=O)CC(c3ccccc3)C2=O)c(Cl)c1)c1ccccn1 (stereo not drawn)
[23]
  EC50: 0.49 µM (active)

## O=C(Nc1ccc(Cl)c(Cl)c1)c1ccncn1
[23]
  EC50: 3.37 µM (active)
